Laboratory results as given in patent US20180221487A1, “NOVEL PROTEIN TRANSFECTION COMPOSITIONS AND USES THEREOF” (Chang Gung Memorial Hospital, Linkou, priority 2017, published 2018).

Tested on: ovarian (MDAH2774) cancer cells
Experiment: Protein transfection efficiency by flow cytometry
Format: cell-based, human
Details: transfected using HEPES buffer (20-30 mM)
Protocol: FIG. 1 depicts the method of protein transfection in its simplest form: (A) proteins of interest and a protein transfection composition, such as HEPES buffer, are mixed and incubated for about 15 min to about 30 min (“the first incubation time”) to form a mixture. (B) Cells to be transfected are cultured with a first cultured medium comprising at least about 10% fetal bovine serum for about 24 hours, followed by the replacement of the first cultured medium with a minimal essential medium. (C) The mixture in step (A) is added to the cells in minimal essential medium in Step (B) and incubated at 37° C. for about 4 to about 24 hours (“the second incubation time”). (D) The protein transfection efficiency can be analyzed using various methods, such as immunofluorescent staining and flow cytometry. Flow cytometry: After protein transfection was completed, the cells in the culture dish were washed with PBS, trypsinized and pelleted. The cells were mixed with Fixation/Permeabilization (eBioscience, Inc., San Diego, Calif., USA) working solution and incubated at 4° C. for 30 min to 24 h. […] Cells were suspended in 1×PBS and analyzed by flow cytometry (BD Biosciences, Qume Drive San Jose, Calif., USA). […] The protein transfection efficiency can be analyzed using immunofluorescent staining or flow cytometry (Panel D). […]

“rhSTIP1: v5-tagged recombinant human STIP1 protein (BiP-STIP1-V5-His), 62.6 kDa” was tested, and the “transfection efficiency: signal detected in % of the ovarian cancer cells” value was 99.6%.
